Data: US20240156790A1, “COMPOUNDS, COMPOSITIONS, AND METHODS FOR MODULATING FERROPTOSIS AND TREATING EXCITOTOXIC DISORDERS” (THE TRUSTEES OF COLUMBIA UNIVERSITY IN THE CITY OF NEW YORK, priority 2018, published 2024)
“Also recorded” adds a separate entry of the source. Read-outs that look alike come from different tables or passages of the source.

Tests used:
[1] = test system: HT-1080 cells; experiment: Rescue activity of selected Fer-1 analogs, dose-response in HT-1080 cells (cell titer glo); format: cell-based
Description: Selected Fer-1 analogs containing a pyridine moiety (FIG. 4) were tested to examine their efficacy and overall potency in inhibiting ferroptosis. For each of these compounds, dose-response curves were generated in HT-1080 cells looking at the effectiveness of the molecules in inhibiting ferroptosis induced by either 3 μM IKE or 0.2 μM RSL3, Fer-1 was used as a positive control. For each dose-response curve, 1,000 cells/well were seeded in a 384 well plate and allowed to adhere overnight prior to treating with compound from a daughter plate. Cells were treated for 48 hours, unless otherwise noted, prior to viability being analyzed using cell titer glo (40 μL per well). All liquid handling was performed using the BioMek. All samples were prepared in triplicate, unless otherwise noted.

[2] = Microsomal stability, human liver microsomes (Table 1); format: in vitro ADME; conditions: liver microsomes; Human: Pooled, 50 donors; read-out: Microsomal Stability t1/2 (converted)
[3] = Plasma stability, mouse plasma (Table 1); format: in vitro ADME
[4] = PHB4082 IP, IV Study (cyclodextrin/PEG/tween vehicle); format: in vivo, C57BL/6 mice; conditions: both sexes, C57BL/6, mouse; for concentration at 2 h / concentration at 4 h: 10 mg/kg
Description: C57BL/6 mice (8-weeks of age and ˜25 g weight) were weighed before injection and divided into groups of two male and female mice per cage. PHB4082 was dissolved in 5% DMSO/95% of 1:1 [(65% v/v of 25% w/v 2-hydroxypropyl-3-cyclodextrin (Cayman Chemical) dissolved in 20% EtOH, 30% v/v Poly(ethylene glycol)-400 (Sigma Aldrich 202398), 5% v/v Tween 80 (Fluka 59924)):MilliQ water] to create a 2 mg/mL solution. The same formulation without PHB4082 was used as a vehicle control. The solution was sterilized using a […] Steriflip filter unit (Thomas Scientific 1189Q46). Mice were dosed IP, and IV routes of administration and euthanized by CO2 asphyxiation for 3 min at 2 and 4 h after administration. To ensure that the vehicle was well-tolerated, four mice for each timepoint were treated with vehicle and euthanized 4 h and 24 h after administration. ˜0.5 mL of blood was collected via cardiac puncture and immediately put in K3 EDTA microtubes ([…] 41.1504.105) and kept on ice. Organs were harvested, placed in Eppendorf tubes, and frozen on dry ice. Blood samples were centrifuged for 10 min at 2,100×g at 4° C., then plasma was transferred to a clean tube and frozen on dry ice. Organ samples were weighed and placed in hard tissue homogenizing tubes (Omni International 19-628) and a volume of DEPC-treated nuclease-free water (IBI Scientific IB42200) was added to make a 500 mg/mL solution and homogenized using the Omni Bead Ruptor 4 at speed 5 for 30 seconds. Compound was extracted from plasma or organ homogenate by adding 900 μL acetonitrile to 100 μL plasma or organ homogenate. Samples were mixed by vortexing and allowed to extract overnight at 4° C. prior to mixing for at least 5 min by rotating at room temperature, vortexing, and sonicating for at least 30 second prior to centrifugation for 10 min at 4,000×g and 4° C. The supernatant was then transferred to a glass vial and analyzed by UPLC-MS described below. The base peak chromatogram was integrated and quantified by standard curve concurrently ran.
To determine whether PHB4082 accumulated in brain preferentially over plasma, the log10(Brain/Plasma) ratio was calculated for each time-point with a log10(Brain/Plasma) >0 indicating preferential accumulation in brain over plasma. We observed that PHB4082 did slightly accumulate in brain over plasma as time progressed (FIG. 21B); however, at the time-point where PHB4082 preferentially accumulated in brain, the difference in concentration in the brain compared to plasma was low, indicated by the near 0 log values.

[5] = test system: renal tubular ferroptosis; experiment: Renal tubular ferroptosis model triggered by ferric nitrilotriacetate (Fe-NTA); format: in vivo, Sprague-Dawley rat
Description: Fe(NO3)3·12H2O (Wako, Osaka, Japan) and nitrilotriacetic acid disodium salt (Tokyo Chemical Industry, Tokyo, Japan) were dissolved in deionized water to generate 300 mM and 600 mM solutions, respectively, which were mixed immediately before injections by a ratio of 1:2 (v/v) and then adjusted to pH 7.4 with sodium carbonate to make Fe-NTA solution. PHB4082 was dissolved in 5% DMSO/95% of 65% v/v of 25% w/v 2-hydroxypropyl-β-cyclodextrin (Cayman Chemical) dissolved in 20% EtOH, 30% v/v Poly(ethylene glycol)-400 (Sigma Aldrich 202398), 5% v/v Tween 80 (Fluka 59924) to generate 2 mg/mL solution. The same formulation without PHB4082 was used as vehicle control. For both the solutions ultrasonic disruptor was applied to accelerate the dissolution and they are stored at −20° C. up to one week before injections.
Male wild-type Sprague-Dawley rat (CLEA Japan, Tokyo; n=6 for vehicle control, n=7 for PHB4082 pretreatment) at 4-6 weeks of age were fasted for 12 h prior to intraperitoneal administration of 2 mg/ml PHB4082 solution as pretreatment or with the formulation without PHB4082 as vehicle control. Two hours later all the rats were followed by IP injection of Fe-NTA with a dose of 10 mg iron/kg. The rats were euthanized 24 h after Fe-NTA injection. Fresh kidney tissues were excised and were either fixed in 10% phosphate-buffered formalin or preserved at −80° C. for subsequent analysis. The animal experiment committee of Nagoya University Graduate School of Medicine approved the animal experiments.
Immunostainings were performed by BOND MAX/III (Leica, Wetzlar, Germany) with BOND Polymer Refine Detection (ds9800; Leica) as described. Primary antibodies applied were listed as: anti-4-hydroxy-2-nonenal (HNE) modified proteins antibody (anit-HNEJ-1, in house), anti-transferrin receptor antibody (13-6800, Invitrogen). Quantitation of renal tubular ferroptosis was performed by measuring the necrotized cortical area after H&E staining by identifying the area of necrotized tubules with loss of nuclei. ImageJ was used for quantification of % necrosis area with randomly selected microscopic areas (×20, objective lens; n=9).
We evaluated the ferroptosis protection effect of PHB4082 in a renal tubular ferroptosis model. This model was previously established by Toyokuni lab (Kong et al. 2022; Toyokuni et al. 2022; Akatsuka et al. 2012). A Fenton-reaction based renal carcinogenesis in this model results from repeated intraperitoneal injections of ferric nitrilotriacetate (Fe-NTA). This iron chelate could specifically induce proximal epithelial ferroptosis via single IP administration. […] We chose 24 h after Fe-NTA administration for evaluation of the effects of PHB4082 because this is the peak time for renal tubular necrosis.

[6] = brain, IP Administration, read-out: [PHB4082]brain
[7] = brain, IV Administration, read-out: [PHB4082]brain
[8] = plasma, IP Administration, read-out: [PHB4082]plasma
[9] = plasma, IV Administration, read-out: [PHB4082]plasma

Row | Structure (SMILES) | death observed with RSL3 ([1]; 0.2 μM RSL3, inhibitor range 10 μM-0 μM) | rescue against IKE and erastin ([1]; inhibitor 1 μM-0 μM, 3 μM IKE, 10 μM erastin, 48 hours) | half-life [2] | Plasma Stability at six hours (% remaining) [3] | log10 Kp (brain/plasma) ([4]; brain and plasma, other: intraperitoneally and intravenously, 10 mg/kg intraperitoneally and intravenously) | concentration at 2 h [4, 6] | concentration at 4 h [4, 6] | concentration at 2 h [4, 7] | concentration at 4 h [4, 7] | concentration at 4 h [4, 8] | concentration at 2 h [4, 9] | concentration at 4 h [4, 9] | concentration at 2 h [4, 8] | HNE adducts in proximal tubules (HNEJ-1 immunostaining) ([5]; 24 h after Fe-NTA) | TfR1 / TRF1/CD71 signals in proximal tubules ([5]; 24 h after Fe-NTA) | necrotized renal tubular area ([5]; 24 h after Fe-NTA) | survival 24 h after Fe-NTA administration ([5]; IP pretreatment 2 h before Fe-NTA 10 mg iron/kg)
1 | CCOC(=O)c1ccc(NC2CCCCC2)c(N)c1 [Fer-1, Ferrostatin-1, reference compound] | No death was observed | ~50% | 11.4 min | 0-2% |  |  |  |  |  |  |  |  |  |  |  |  | 
2 | Cc1noc(-c2ccc(NC3CCCCC3)c(NC3CCCCC3)c2)n1 [PHB4082, N1,N2-dicyclohexyl-4-(3-methyl-1,2,4-oxadiazol-5-yl)benzene-1,2-diamine] |  |  |  |  | < 0 | 114 ± 21 nM | 99 ± 62 nM | 557 ± 245 nM | 176 ± 76 nM | 306 ± 379 nM | 634 ± 359 nM | 281 ± 284 nM | 957 ± 693 nM | less amounts of HNE adducts | low to moderate signals in the proximal tubules; also recorded: less signals for TRF1/CD71 | dramatically reduced the necrotized renal tubular area | all of those with PHB4082 pretreatment survived 24 hrs
